B1: DBT sulfone monooxygenase BdsA from Bacillus subtilis WU-S2B (enzyme)
chain: MAEQRQLHLAGFFSAGNVTHAHGAWRHVGATNGFLTGEFYKQIARTLERGKFDLLFLPDGLAIEDSYGDNLETGVGLGGQGAVALEPTSVIATMAAVTQRLGLGATVSTTYYPPYHVARVFATLDNLSDGRISWNVVTSLNDSEARNFGVDEHLEHDIRYDRADEFLEAVKKLWSSWSEDALLLDKVGGRFADPKKVQYVNHRGRWLSVRGPLQVPRSRQGEPVILQAGLSPRGRRFAGRWAEAVFSVSPNLDIMRAVYQDIKAHVAAAGRDPEQTKVFTAVMPVLGETEQVARERLEYLNSLVHPEVGLSTLSSHSGLNLSKYPLDTKFSDIVADLGDRHVPTMLQMFSAVAGGGADLTLAELGRRYGTNVGFVPQWAGTAEQIADQLISHFEAGAADGFIISPAYLPGIYEEFVDQVVPLLQQRGVFRTEYEGTTLREHLGLAHPEVGSIR
notes: BdsA (DBT sulfone monooxygenase), Bacillus subtilis WU-S2B; synthesized bdsA gene cloned into the NdeI and XhoI sites of pET-15b; each monomer is composed of 453 amino acids; in the crystal the N-terminus to Gln4 and Ser451 to the C-terminus are not visible; No removal of the His-tag is described; also called apo-BdsA; dibenzothiophene sulfone monooxygenase; source: E. coli BL21 (DE3), purified …

Tests used:
BdsA = biological target: T1, BdsA (Bacillus subtilis, UniProt Q8GRC7); experiment: X-ray crystallography, […] A, crystal soaking; format: binding; conditions: crystals soaked in 1 mM FMN for 30 min, pH 5.5; one FMN per subunit, active site
T1 construct: monomer 453 residues; homotetramer, ~220 kDa by gel filtration

[1] = biological target: the molecule itself; experiment: SEC; Superdex-200 gel filtration in 10 mM Tris-HCl (pH 8.0), 100 mM NaCl; oligomeric state in solution from the elution volume (~220 kDa)

Molecule	X-ray crystallography, 2.4 A, crystal soaking (BdsA)	stoichiometry N [1]
Cc1cc2nc3c(=O)[nH]c(=O)nc-3n(C[C@H](O)[C@H](O)[C@H](O)COP(=O)(O)O)c2cc1C [FMN]	The structure of the tetrameric BdsA–FMN complex contains four FMN molecules	
B1		4

— article PMC5819316, “Structural and Biochemical Characterization of BdsA from Bacillus subtilis WU-S2B, a Key Enzyme in the “4S” Desulfurization Pathway” (Frontiers in Microbiology, 2018)
